# Reference: article PMC7413516, “Antidepressant-like activity and safety profile evaluation of 1H-imidazo[2,1-f]purine-2,4(3H,8H)-dione derivatives as 5-HT1A receptor partial agonists” (PLoS ONE, 2020)
# “And” between values parts separate entries of the source, which are not always exact repeats. Identical values can stand only once.
# What was measured:
# [1] = tested on: adrenergic α1 receptors (α1R); test: Pressor response to methoxamine in anesthetized normotensive rats (adrenolytic activity); assay type: in vivo, Wistar rats; conditions: 10 mg/kg; for mean reduction of blood pressure vs. methoxamine alone: 30 min prior to methoxamine 150 μg/kg
# Method: In a separate series of experiments on anesthetized normotensive rats, the effect of studied compounds on the pressor response to methoxamine (Sigma Aldrich) (150 μg/kg) was investigated. Pressor responses to methoxamine injected intravenously were measured before and 30 min after the administration of the tested compound. The amplitudes of the pressure values were measured in 4 independent experiments.
# [2] = biological target: T1, histaminic H1 receptor (H1R) (Cavia porcellus, UniProt P31389); test: Smooth muscle relaxant assay: histamine-induced contraction of isolated guinea pig ileum; conditions: isolated guinea pig small intestine, histamine 2 μM
# T1 construct: from tissue; host or cells: isolated guinea pig ileum
# T1 sequence (P31389 whole entry): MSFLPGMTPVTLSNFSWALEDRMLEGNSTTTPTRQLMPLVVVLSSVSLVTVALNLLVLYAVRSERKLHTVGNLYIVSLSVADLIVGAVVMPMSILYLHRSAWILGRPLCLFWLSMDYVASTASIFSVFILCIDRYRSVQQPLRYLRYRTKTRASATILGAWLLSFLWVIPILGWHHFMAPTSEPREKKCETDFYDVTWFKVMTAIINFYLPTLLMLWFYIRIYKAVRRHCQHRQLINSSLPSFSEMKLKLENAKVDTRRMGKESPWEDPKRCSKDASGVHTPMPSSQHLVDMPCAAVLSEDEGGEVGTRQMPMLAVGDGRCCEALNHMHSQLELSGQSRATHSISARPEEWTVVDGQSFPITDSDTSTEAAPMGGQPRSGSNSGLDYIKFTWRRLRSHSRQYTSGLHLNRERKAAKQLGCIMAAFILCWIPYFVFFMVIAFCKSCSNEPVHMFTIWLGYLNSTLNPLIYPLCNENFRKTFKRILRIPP
# Method: The experiment was carried out according to the method described previously. Male guinea pigs were sacrificed by cervical dislocation. The ileum was rapidly removed, rinsed, and cut into segments of 1.5–2.0 cm length. The tissues were mounted on a jacketed 20 mL organ bath (Tissue Organ Bath System; 750 TOBS, DMT, Denmark) filled with Krebs’s solution (NaCl 120 mM, KCl 5.6 mM, MgCl2 2.2 mM, CaCl2 2.4 mM, NaHCO3 19 mM, glucose 10 mM). The bath was aerated with 95 % O2/5 % CO2 and heated at 37°C. During the 60-min incubation period, the organ was rinsed 4 times with fresh Krebs’s buffer, and the tissues were also pre-stimulated by 60 mM KCl solution. The submaximal contraction induced by histamine (Sigma Aldrich) (2 μM) and carbachol (Sigma Aldrich) (100 μM) was evaluated in the presence and absence of the tested compounds. Amplitudes of contraction values were measured in 4 independent experiments.
# [3] = Body weight measurement in the 17-day experiment; assay type: in vivo, Swiss albino mice; conditions: for effect on body weight: mice, repeated i.p. once daily, AZ-853 0.625 mg/kg (from 10th day), AZ-861 1.25 mg/kg (2nd, 3rd, 4th day); for body weight Mean / body weight: mouse
# Method: (§1) The Swiss albino mice were used in the experiment. AZ-853 and AZ-861 were injected once daily for 16 consecutive days. On the 1st and 15th day the administration of the compounds, 18-h spontaneous animal activity was registered (see below). FST, as described earlier, was performed on the 14th day just before the next treatment. To ensure that the effects observed in FST are not the result of increased motility of animals, on the 13th day, just before the next administration, the locomotor activity was measured as described earlier, from 2 to 6 min after test start, i.e. in the period identical to the duration of FST. Blood and organ collection was performed on the 17th day at 24 h after the last dose and fasting.
# The body weight was measured daily immediately prior to administration of the drugs. On the 17th day, the blood was collected from the Swiss albino mice sacrificed by decapitation 20 min after i.p. administration of heparin (2500 units/mouse) and then centrifuged at 600 × g (15 min, 4°C) to separate plasma. The liver, heart, and kidney were also collected and weighed.
# [4] = Plasma ALAT and γ-GTP activity after repeated administration; assay type: in vivo, Swiss albino mice; conditions: mice, AZ-853 0.625, AZ-861 1.25 mg/kg b.w./day
# Method: as §1
# Blood samples were collected from the Swiss albino mice 24 h after the last administration of the tested compounds or vehicle. To determine glucose, cholesterol and triglyceride levels in the plasma, standard enzymatic spectrophotometric tests (Biomaxima S.A. Lublin, Poland) were used. In the presence of appropriate enzyme, the substrate was converted to a colored compound. Absorbance was measured at a wavelength of 500 nm. To determine alanine aminotransferase (ALAT) or γ-glutamyl transpeptidase (γ-GTP) activities in the plasma, the standard enzymatic spectrophotometric test (Biomaxima S.A.) was used. Absorbance was measured at 340 nm (ALAT) or 405 nm (γ-GTP).
# [5] = biological target: serotonergic 5-HT7 receptor (5-HT7R); set-up: method as in PMID 27353547; conditions: ref [8]; cited from earlier work
# 5-HT1AR = tested on: 5-HT1AR; set-up: method as in PMID 27353547; conditions: CHO-K1 cells, Ca2+ mobilisation; ref [8]; read-out: Kb, 5-HT1AR antagonist; cited from earlier work
# [6] = set-up: method as in PMID 27353547; conditions: ref [8]; cited from earlier work
# human 5-HT1AR = biological target: T2, human 5-HT1AR (Homo sapiens, UniProt P08908); test: β-Arrestin recruitment (Tango LiveBLAzer, HTR1A-bla U2OS cells); conditions: for Emax: U2OS, read-out: Emax (%) ± SEM, agonist mode; for increased potency as compared to 5-HT: β-arrestin recruitment
# T2 sequence (P08908 1-422): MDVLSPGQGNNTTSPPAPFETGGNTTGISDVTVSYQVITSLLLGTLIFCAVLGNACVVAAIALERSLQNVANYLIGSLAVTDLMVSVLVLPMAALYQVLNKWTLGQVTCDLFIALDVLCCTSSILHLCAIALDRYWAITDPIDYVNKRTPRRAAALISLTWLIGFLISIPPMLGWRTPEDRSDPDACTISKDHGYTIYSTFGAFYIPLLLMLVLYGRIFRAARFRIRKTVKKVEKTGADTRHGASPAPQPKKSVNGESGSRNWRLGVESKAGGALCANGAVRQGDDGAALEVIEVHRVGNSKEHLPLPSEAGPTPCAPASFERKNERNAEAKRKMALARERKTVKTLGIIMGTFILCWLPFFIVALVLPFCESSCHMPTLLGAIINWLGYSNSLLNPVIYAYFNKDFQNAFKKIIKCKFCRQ
# Method: Cells were cultured according to manufacturer’s instruction. […] This parental cell line stably expresses a beta-arrestin/TEV protease fusion protein and the beta-lactamase reporter gene under the control of a UAS response element. The Tango™ HTR1A-bla U2OS cells have been functionally validated for a response to 5-CT. This cell line tested negative for mycoplasma.
# The HTR1A-bla U2OS receptor cells containing the human 5-HT1AR linked to a TEV protease site and a Gal4-VP16 transcription factor were tested for recruitment of β-arrestin. […] The recruitment of β-arrestin were tested using the Tango LiveBLAzer assay kit according to the manufacturer’s instruction (Life Technologies). The assay plate was measured in FLUOstar Optima, a multifunction plate reader (BMG Lab Tech).
compound,measurement,setting,value
"Cn1c(=O)c2c(nc3n(CCCCN4CCN(c5ccccc5F)CC4)ccn23)n(C)c1=O [AZ-853, 8-(4-(4-(2-fluorophenyl)piperazin-1-yl)butyl)-1,3-dimethyl-1H-imidazo[2,1-f]purine-2,4(3H,8H)-dione]",mean reduction of blood pressure vs. methoxamine alone,[1],95.5 mmHg
same,inhibition at 1 µM,[2],94.8%
same,effect on body weight,[3],slight but significant increase in body weight
same,body weight Mean,"[3]; 0.625 mg/kg, day 1, group mean",23.45 g
same,body weight,"[3]; 0.625 mg/kg, day 1, individual mouse, 0.625 mg/kg",24.7 g (2×) and 22.9 g and 21.9 g and 25.0 g and 23.8 g and 23.0 g and 21.7 g (2×) and 25.1 g
same,body weight Mean,"[3]; 0.625 mg/kg, day 2, group mean",23.55 g
same,body weight,"[3]; 0.625 mg/kg, day 2, individual mouse, 0.625 mg/kg",24.9 g and 23.5 g and 24.2 g and 22.6 g and 24.5 g and 23.3 g and 22.7 g and 21.2 g and 22.0 g and 26.6 g
same,body weight Mean,"[3]; 0.625 mg/kg, day 3, group mean",23.90 g
same,body weight,"[3]; 0.625 mg/kg, day 3, individual mouse, 0.625 mg/kg",25.0 g (2×) and 24.0 g (3×) and 23.0 g (2×) and 22.0 g (2×) and 27.0 g
same,body weight Mean,"[3]; 0.625 mg/kg, day 4, group mean",23.70 g
same,body weight,"[3]; 0.625 mg/kg, day 4, individual mouse, 0.625 mg/kg",24.0 g (4×) and 25.0 g and 22.0 g (3×) and 23.0 g and 27.0 g
same,body weight Mean,"[3]; 0.625 mg/kg, day 5, group mean",23.80 g
same,body weight,"[3]; 0.625 mg/kg, day 5, individual mouse, 0.625 mg/kg",23.3 g and 23.8 g and 24.9 g and 22.7 g and 24.6 g and 23.7 g and 23.6 g and 22.2 g and 22.8 g and 26.4 g
same,body weight Mean,"[3]; 0.625 mg/kg, day 6, group mean",23.85 g
same,body weight,"[3]; 0.625 mg/kg, day 6, individual mouse, 0.625 mg/kg",24.2 g and 23.2 g and 24.4 g and 22.9 g and 24.7 g and 23.9 g and 23.5 g and 21.9 g and 23.4 g and 26.4 g
same,body weight Mean,"[3]; 0.625 mg/kg, day 7, group mean",24.10 g
same,body weight,"[3]; 0.625 mg/kg, day 7, individual mouse, 0.625 mg/kg",24.0 g (4×) and 25.0 g (2×) and 23.0 g (3×) and 26.0 g
same,body weight Mean,"[3]; 0.625 mg/kg, day 8, group mean",24.50 g
same,body weight,"[3]; 0.625 mg/kg, day 8, individual mouse, 0.625 mg/kg",25.0 g (2×) and 26.0 g (3×) and 23.0 g (3×) and 24.0 g (2×)
same,body weight Mean,"[3]; 0.625 mg/kg, day 9, group mean",25.00 g
same,body weight,"[3]; 0.625 mg/kg, day 9, individual mouse, 0.625 mg/kg",25.0 g (2×) and 26.0 g (2×) and 27.0 g (2×) and 23.0 g (2×) and 24.0 g (2×)
same,body weight Mean,"[3]; 0.625 mg/kg, day 10, group mean",25.14 g
same,body weight,"[3]; 0.625 mg/kg, day 10, individual mouse, 0.625 mg/kg",25.4 g and 24.9 g and 26.7 g and 23.8 g and 25.2 g and 24.3 g and 24.0 g and 23.7 g and 25.7 g and 27.7 g
same,body weight Mean,"[3]; 0.625 mg/kg, day 11, group mean",24.68 g
same,body weight Mean,"[3]; 0.625 mg/kg, day 12, group mean",25.52 g
same,body weight Mean,"[3]; 0.625 mg/kg, day 13, group mean",25.54 g
same,body weight Mean,"[3]; 0.625 mg/kg, day 14, group mean",25.91 g
same,body weight Mean,"[3]; 0.625 mg/kg, day 15, group mean",26.09 g
same,increase of plasma γ-GTP activity,[4],approximately 435%
same,plasma ALAT activity vs. control,[4],did not lead to significant changes in ALAT activity
same,Ki,[5],508 nM
same,Kb,5-HT1AR,2.7 nM
same,estimated log p,[6],5.34
same,EC50,human 5-HT1AR,4.17 nM
same,Emax,human 5-HT1AR,93 ± 1.7%
same,increased potency as compared to 5-HT,human 5-HT1AR,95 fold
"Cn1c(=O)c2c(nc3n(CCCCN4CCN(c5cccc(C(F)(F)F)c5)CC4)ccn23)n(C)c1=O [AZ-861, 1,3-dimethyl-8-(4-(4-(3-(trifluoromethyl)phenyl)piperazin-1-yl)butyl)-1H-imidazo[2,1-f]purine-2,4(3H,8H)-dione]",reversal of the effect of methoxamine,[1],approximately 40%
same,mean reduction of blood pressure vs. methoxamine alone,[1],40.45 mmHg
same,inhibition at 1 µM,[2],99.8%
same,effect on body weight,[3],slight and significant decrease in body weight
same,body weight Mean,"[3]; 1.25 mg/kg, day 1, group mean",23.19 g
same,body weight,"[3]; 1.25 mg/kg, day 1, individual mouse, 1.25 mg/kg",20.6 g and 21.8 g and 22.1 g and 24.2 g and 24.0 g and 23.4 g and 23.1 g and 24.9 g and 26.3 g and 21.5 g
same,body weight Mean,"[3]; 1.25 mg/kg, day 2, group mean",23.05 g
same,body weight,"[3]; 1.25 mg/kg, day 2, individual mouse, 1.25 mg/kg",20.7 g and 22.8 g and 22.6 g and 24.2 g and 23.5 g (2×) and 23.1 g and 23.6 g and 24.9 g and 21.6 g
same,body weight Mean,"[3]; 1.25 mg/kg, day 3, group mean",23.20 g
same,body weight,"[3]; 1.25 mg/kg, day 3, individual mouse, 1.25 mg/kg",21.0 g (2×) and 22.0 g and 23.0 g and 24.0 g (5×) and 25.0 g
same,body weight Mean,"[3]; 1.25 mg/kg, day 4, group mean",23.30 g
same,body weight,"[3]; 1.25 mg/kg, day 4, individual mouse, 1.25 mg/kg",22.0 g (2×) and 23.0 g (3×) and 21.0 g and 24.0 g (2×) and 25.0 g and 26.0 g
same,body weight Mean,"[3]; 1.25 mg/kg, day 5, group mean",23.70 g
same,body weight,"[3]; 1.25 mg/kg, day 5, individual mouse, 1.25 mg/kg",21.6 g and 22.5 g and 22.7 g and 24.5 g and 24.0 g and 23.5 g and 24.9 g and 26.3 g and 25.9 g and 21.1 g
same,body weight Mean,"[3]; 1.25 mg/kg, day 6, group mean",23.76 g
same,body weight,"[3]; 1.25 mg/kg, day 6, individual mouse, 1.25 mg/kg",21.6 g (2×) and 22.1 g and 22.6 g and 25.1 g and 24.3 g and 23.0 g and 25.3 g and 25.6 g and 26.4 g
same,body weight Mean,"[3]; 1.25 mg/kg, day 7, group mean",23.90 g
same,body weight,"[3]; 1.25 mg/kg, day 7, individual mouse, 1.25 mg/kg",22.0 g (3×) and 23.0 g and 25.0 g (2×) and 24.0 g (2×) and 26.0 g (2×)
same,body weight Mean,"[3]; 1.25 mg/kg, day 8, group mean",24.10 g
same,body weight,"[3]; 1.25 mg/kg, day 8, individual mouse, 1.25 mg/kg",23.0 g (3×) and 25.0 g (2×) and 24.0 g (2×) and 26.0 g (2×) and 22.0 g
same,body weight Mean,"[3]; 1.25 mg/kg, day 9, group mean",24.40 g
same,body weight,"[3]; 1.25 mg/kg, day 9, individual mouse, 1.25 mg/kg",23.0 g (4×) and 26.0 g (3×) and 25.0 g (2×) and 24.0 g
same,body weight Mean,"[3]; 1.25 mg/kg, day 10, group mean",24.31 g
same,body weight,"[3]; 1.25 mg/kg, day 10, individual mouse, 1.25 mg/kg",22.5 g and 23.1 g (2×) and 25.2 g and 24.7 g and 24.0 g and 25.0 g and 26.6 g and 26.8 g and 22.1 g
same,body weight Mean,"[3]; 1.25 mg/kg, day 11, group mean",24.47 g
same,body weight Mean,"[3]; 1.25 mg/kg, day 12, group mean",24.59 g
same,body weight Mean,"[3]; 1.25 mg/kg, day 13, group mean",24.59 g
same,body weight Mean,"[3]; 1.25 mg/kg, day 14, group mean",24.73 g
same,body weight Mean,"[3]; 1.25 mg/kg, day 15, group mean",25.31 g
same,increase of plasma γ-GTP activity,[4],did not change activity
same,plasma ALAT activity vs. control,[4],did not lead to significant changes in ALAT activity
same,Ki,[5],136 nM
same,Kb,5-HT1AR,1.4 nM
same,estimated log p,[6],5.75
same,EC50,human 5-HT1AR,0.372 nM
same,Emax,human 5-HT1AR,95 ± 1.7%
same,increased potency as compared to 5-HT,human 5-HT1AR,1000 fold
